{"source": "paper PMC3883289", "about": "“DER containing two consecutive GTP-binding domains plays an essential role in chloroplast ribosomal RNA processing and ribosome biogenesis in higher plants” (Journal of Experimental Botany, 2013)", "target": "T1, NbDER (MBP:NbDER) (Nicotiana benthamiana, UniProt R4N342, S369A)", "T1 construct": "gene YphC; without N-terminal chloroplast transit peptide (Met-1 to Ser-60); N-terminal MBP tag kept; E. coli; precursor 651 residues; GD1, GD2 and CTD present; fusion proteins approximately 60-107 kDa", "T1 sequence (R4N342 entry or part of it S369A)": "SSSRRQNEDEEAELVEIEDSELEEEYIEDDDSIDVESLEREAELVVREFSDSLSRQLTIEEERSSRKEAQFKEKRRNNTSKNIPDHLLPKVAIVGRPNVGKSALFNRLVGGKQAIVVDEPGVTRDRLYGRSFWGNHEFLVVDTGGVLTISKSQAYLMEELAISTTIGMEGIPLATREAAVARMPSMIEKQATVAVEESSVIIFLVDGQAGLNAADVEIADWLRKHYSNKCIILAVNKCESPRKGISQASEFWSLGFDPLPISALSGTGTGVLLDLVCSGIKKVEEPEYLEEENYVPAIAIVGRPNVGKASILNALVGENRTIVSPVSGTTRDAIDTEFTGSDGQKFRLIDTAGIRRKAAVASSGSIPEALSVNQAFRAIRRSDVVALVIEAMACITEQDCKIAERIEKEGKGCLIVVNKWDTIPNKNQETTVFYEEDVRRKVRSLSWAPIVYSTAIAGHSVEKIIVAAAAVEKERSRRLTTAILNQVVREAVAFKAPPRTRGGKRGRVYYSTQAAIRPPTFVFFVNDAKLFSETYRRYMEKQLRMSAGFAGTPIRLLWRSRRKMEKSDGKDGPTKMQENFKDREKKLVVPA", "assay": "phosphate release, Biomol green", "assay_type": "biochemical", "conditions": "1 mM GTP, 3 uM protein, HEPES pH 8, 1 mM Mg (printed MgCl4), room temperature, 18 h", "data": [{"compound": "Nc1nc2c(ncn2[C@@H]2O[C@H](COP(=O)(O)OP(=O)(O)OP(=O)(O)O)[C@@H](O)[C@H]2O)c(=O)[nH]1", "note": "[GTP]", "values": [{"measurement": "phosphate release, Biomol green", "value": "S162A or S369A mutation in NbDER (PM1 or PM2) reduced the k cat values"}]}]}
